From US20250313535A1, “ALPHA 4 BETA 7 INTEGRIN MODULATORS AND USES THEREOF” (DICE MOLECULES SV, INC., priority 2022, published 2025)

What was measured:
Assay type in all cases: cell-based
α4β7 integrin [1] = target: T1, α4β7 integrin (Homo sapiens (Human), UniProt P13612+P26010); assay: Integrin Adhesion Assay: Protocol 1 (MAdCAM-coated plate, RPMI-8866 cells, CellTiter GLO readout)
In short: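 RPMI-8866 cells (2×10^6 per mL) added with compounds (1% DMSO) to MAdCAM-coated wells blocked in HEPES/NaCl buffer with 1 mM MnCl2, 0.1 mM CaCl2, 1% BSA; 1 h at 37° C, 5% CO2. After four washes, bound cells read by CellTiter GLO luminescence; % inhibition vs DMSO and control wells, 4-parameter fit.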

α4β7 integrin [2] = target: T1, α4β7 integrin; assay: Integrin Adhesion Assay: Protocol 4 (MAdCAM-coated plate, RPMI-8866 cells with stable LOF mutation of the ITGB1 gene)
In short: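 RPMI-8866 cells with CRISPR/Cas9 knockout of ITGB1 (2×10^6/mL) were added to MAdCAM-coated wells with compound (1% DMSO) in HEPES/NaCl buffer with 1 mM MnCl2, 0.1 mM CaCl2 and 1% BSA, then incubated 1 h at 37 °C. After four washes, adherent cells were quantified by CellTiter-Glo luminescence. Percent inhibition versus DMSO and control compound was fitted to 4-parameter curves.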

α4β1 integrin = α4β1 integrin (Homo sapiens (Human), UniProt P05556+P13612); assay: Integrin Adhesion Assay: Protocol 5 (VCAM-coated plate, RPMI-8866 cells with stable LOF mutation of the ITGB7 gene); details: RPMI-8866 cells with stable LOF mutation of the ITGB7 gene; read-out: Mean IC50 α4β1 KO^b
α4β1 integrin, sequence (P13612 34-1032): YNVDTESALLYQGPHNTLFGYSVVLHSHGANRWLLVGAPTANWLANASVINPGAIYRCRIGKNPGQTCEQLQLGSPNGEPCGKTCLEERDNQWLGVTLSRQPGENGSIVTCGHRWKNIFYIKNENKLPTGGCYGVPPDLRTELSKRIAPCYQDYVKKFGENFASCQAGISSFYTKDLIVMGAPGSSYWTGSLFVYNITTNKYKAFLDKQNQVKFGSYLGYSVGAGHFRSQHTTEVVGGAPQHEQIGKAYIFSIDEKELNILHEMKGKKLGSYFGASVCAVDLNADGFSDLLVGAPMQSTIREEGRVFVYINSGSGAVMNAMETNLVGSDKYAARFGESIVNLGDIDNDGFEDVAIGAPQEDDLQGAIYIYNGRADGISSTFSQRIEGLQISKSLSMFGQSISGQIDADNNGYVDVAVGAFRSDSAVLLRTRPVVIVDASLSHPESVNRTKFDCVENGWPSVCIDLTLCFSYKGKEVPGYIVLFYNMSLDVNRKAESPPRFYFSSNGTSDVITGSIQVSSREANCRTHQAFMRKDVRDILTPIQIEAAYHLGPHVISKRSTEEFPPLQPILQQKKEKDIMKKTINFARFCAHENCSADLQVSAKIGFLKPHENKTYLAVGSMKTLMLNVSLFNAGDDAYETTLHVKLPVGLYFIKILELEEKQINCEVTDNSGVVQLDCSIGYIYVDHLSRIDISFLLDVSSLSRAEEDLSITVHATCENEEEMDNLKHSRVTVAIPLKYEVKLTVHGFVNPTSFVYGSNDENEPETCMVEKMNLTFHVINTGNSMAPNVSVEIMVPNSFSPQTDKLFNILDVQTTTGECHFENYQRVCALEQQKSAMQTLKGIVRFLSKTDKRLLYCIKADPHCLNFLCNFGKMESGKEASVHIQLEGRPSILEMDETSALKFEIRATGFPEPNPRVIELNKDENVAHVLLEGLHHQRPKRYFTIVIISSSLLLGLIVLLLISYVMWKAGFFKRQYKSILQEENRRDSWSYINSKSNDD
α4β1 integrin, sequence (P05556 21-798): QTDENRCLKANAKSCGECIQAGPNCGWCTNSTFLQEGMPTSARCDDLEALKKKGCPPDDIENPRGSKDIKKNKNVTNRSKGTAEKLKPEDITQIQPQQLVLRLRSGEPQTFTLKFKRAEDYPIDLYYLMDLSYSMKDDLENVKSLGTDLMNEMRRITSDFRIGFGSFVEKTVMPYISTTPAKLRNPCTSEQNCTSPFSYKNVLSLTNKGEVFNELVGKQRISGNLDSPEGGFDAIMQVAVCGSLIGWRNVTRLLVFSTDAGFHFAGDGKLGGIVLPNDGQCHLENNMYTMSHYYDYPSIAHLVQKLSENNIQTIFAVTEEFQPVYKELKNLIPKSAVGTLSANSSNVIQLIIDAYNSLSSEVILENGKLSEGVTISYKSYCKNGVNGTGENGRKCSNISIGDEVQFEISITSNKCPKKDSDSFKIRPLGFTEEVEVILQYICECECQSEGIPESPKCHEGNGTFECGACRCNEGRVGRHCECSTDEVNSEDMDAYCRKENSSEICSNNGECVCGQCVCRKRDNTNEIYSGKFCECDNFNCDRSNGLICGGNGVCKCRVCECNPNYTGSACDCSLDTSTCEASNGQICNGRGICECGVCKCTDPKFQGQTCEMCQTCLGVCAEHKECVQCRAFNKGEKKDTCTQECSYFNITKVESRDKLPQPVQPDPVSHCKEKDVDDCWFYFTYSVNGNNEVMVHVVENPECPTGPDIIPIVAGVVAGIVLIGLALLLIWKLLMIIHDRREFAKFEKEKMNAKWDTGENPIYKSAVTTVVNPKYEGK
In short: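 RPMI-8866 B cells with CRISPR/Cas9 ITGB7 knockout (clonal, verified by flow cytometry) adhered to VCAM-coated wells for 1 h at 37° C in HEPES/NaCl buffer with 1 mM MnCl2, 0.1 mM CaCl2, 1% BSA, 1% DMSO. Bound cells quantified by CellTiter-Glo luminescence after washing; % inhibition versus DMSO and control, 4-parameter fit.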

[3] = RPMI-8866 cells with stable LOF mutation of the ITGB1 gene, read-out: Mean IC50 α4β7 KO^a

T1 sequence (P13612 34-1032): as the sequence (P13612 34-1032) above
T1 sequence (P26010 20-798): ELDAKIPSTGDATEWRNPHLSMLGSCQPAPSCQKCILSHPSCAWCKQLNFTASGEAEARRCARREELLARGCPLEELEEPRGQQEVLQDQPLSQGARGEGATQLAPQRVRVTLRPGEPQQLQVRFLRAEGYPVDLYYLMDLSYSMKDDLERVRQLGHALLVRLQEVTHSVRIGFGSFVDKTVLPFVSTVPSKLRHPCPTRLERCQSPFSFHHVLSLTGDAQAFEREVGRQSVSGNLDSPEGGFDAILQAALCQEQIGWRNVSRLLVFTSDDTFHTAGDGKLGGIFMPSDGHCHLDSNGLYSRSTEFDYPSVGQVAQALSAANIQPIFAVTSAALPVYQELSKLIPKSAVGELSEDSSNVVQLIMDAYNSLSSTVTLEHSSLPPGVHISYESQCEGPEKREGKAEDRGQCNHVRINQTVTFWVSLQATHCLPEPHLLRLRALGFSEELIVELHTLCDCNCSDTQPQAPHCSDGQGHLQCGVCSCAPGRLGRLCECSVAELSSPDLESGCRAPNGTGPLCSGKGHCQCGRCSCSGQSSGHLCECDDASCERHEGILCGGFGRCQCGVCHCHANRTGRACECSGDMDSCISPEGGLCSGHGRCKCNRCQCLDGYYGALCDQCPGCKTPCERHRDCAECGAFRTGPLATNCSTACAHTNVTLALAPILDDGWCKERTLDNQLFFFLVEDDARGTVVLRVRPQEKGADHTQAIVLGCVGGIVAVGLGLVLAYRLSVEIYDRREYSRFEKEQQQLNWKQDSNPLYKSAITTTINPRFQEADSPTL

SMILES	IC50 (α4β7 integrin [1])	IC50 (α4β7 integrin [2]; [3])	IC50 (α4β1 integrin)	IC50 (α4β7 integrin [1]; protocol not given)	IC50 (α4β7 integrin [2]; Protocol 4, RPMI-8866 cells with LOF mutation of ITGB1, MAdCAM, read-out: Mean IC50 α4β7 KO)
CN(C)Cc1cccc2c(-c3cccc4c(C[C@H](NC(=O)[C@]5(C)CC[C@H](N6CCOC[C@@H]6C(F)(F)F)CC5)C(=O)O)cccc34)nccc12 (single isomer, unassigned) [Compound 419]	10 to 100 nM	10 to 100 nM	> 1000 nM	–	–
Cc1cncc(C)c1-c1cc(F)c(C(=O)N[C@@H](Cc2cccc3c(-c4c(C(F)(F)F)c5ccccc5n(C)c4=O)cccc23)C(=O)O)c(F)c1 [Compound 305]	100 to 1000 nM	> 1000 nM	–	–	–
Cc1cccc(C)c1-c1ccc(F)c(C(=O)N[C@@H](Cc2cccc3c(-c4c(C(F)(F)F)c5ccccc5n(C)c4=O)cccc23)C(=O)O)c1F [Compound 307]	100 to 1000 nM	100 to 1000 nM	> 1000 nM	–	–
Cc1n[nH]c(C(F)(F)F)c1-c1cc(F)c(C(=O)N[C@@H](Cc2cccc3c(-c4c(C(F)(F)F)c5ccccc5n(C)c4=O)cccc23)C(=O)O)c(F)c1 [Compound 310]	100 to 1000 nM	100 to 1000 nM	–	–	–
Cn1c(=O)c(-c2cccc3c(C[C@H](NC(=O)c4c(F)ccc(-c5ccncc5)c4F)C(=O)O)cccc23)c(C(F)(F)F)c2ccccc21 [Compound 311]	100 to 1000 nM	100 to 1000 nM	–	–	–
Cc1cccnc1-c1ccc(F)c(C(=O)N[C@@H](Cc2cccc3c(-c4c(C(F)(F)F)c5ccccc5n(C)c4=O)cccc23)C(=O)O)c1F [Compound 316]	100 to 1000 nM	10 to 100 nM	> 1000 nM	–	–
Cn1c(C(=O)N[C@@H](Cc2cccc3c(-c4c(C(F)(F)F)c5ccccc5n(C)c4=O)cccc23)C(=O)O)cnc1C1CCOCC1 [Compound 328]	100 to 1000 nM	100 to 1000 nM	–	–	–
Cn1c(=O)c(-c2cccc3c(C[C@H](NC(=O)c4c(F)cc(N5CCOc6ccccc65)cc4F)C(=O)O)cccc23)c(C(F)(F)F)c2ccccc21 [Compound 332]	100 to 1000 nM	100 to 1000 nM	–	–	–
CN(C)CC1CN(c2cc(F)c(C(=O)N[C@@H](Cc3cccc4c(-c5c(C(F)(F)F)c6ccccc6n(C)c5=O)cccc34)C(=O)O)c(F)c2)CCO1 (some centres unmarked) [Compound 335]	100 to 1000 nM	100 to 1000 nM	–	–	–
Cn1c(=O)c(-c2cccc3c(C[C@H](NC(=O)c4c(F)cc(N5CCOC[C@@H]5c5ccccc5)cc4F)C(=O)O)cccc23)c(C(F)(F)F)c2ccccc21 [Compound 336]	100 to 1000 nM	100 to 1000 nM	–	–	–
Cn1c(=O)c(-c2cccc3c(C[C@H](NC(=O)c4c(F)cc(N5CCOC(CN6CCCC6)C5)cc4F)C(=O)O)cccc23)c(C(F)(F)F)c2ccccc21 (some centres unmarked) [Compound 339]	100 to 1000 nM	100 to 1000 nM	–	–	–
Cn1c(=O)c(-c2cccc3c(C[C@H](NC(=O)c4c(F)cc(N5CC(F)(F)OC(F)(F)C5)cc4F)C(=O)O)cccc23)c(C(F)(F)F)c2ccccc21 [Compound 341]	100 to 1000 nM	100 to 1000 nM	–	–	–
Cn1c(=O)c(-c2cccc3c(C[C@H](NC(=O)c4c(F)cc(C5CCNCC5)cc4F)C(=O)O)cccc23)c(C(F)(F)F)c2ccccc21 [Compound 365]	100 to 1000 nM	100 to 1000 nM	–	–	–
Cn1c(=O)c(-c2cccc3c(C[C@H](NC(=O)c4c(F)cc(C5CCNC5)cc4F)C(=O)O)cccc23)c(C(F)(F)F)c2ccccc21 (some centres unmarked) [Compound 366]	100 to 1000 nM	100 to 1000 nM	–	–	–
CN(C)CCc1cc(F)c(C(=O)N[C@@H](Cc2cccc3c(-c4c(C(F)(F)F)c5ccccc5n(C)c4=O)cccc23)C(=O)O)c(F)c1 [Compound 367]	100 to 1000 nM	100 to 1000 nM	–	–	–
COCCc1cc(F)c(C(=O)N[C@@H](Cc2cccc3c(-c4c(C(F)(F)F)c5ccccc5n(C)c4=O)cccc23)C(=O)O)c(F)c1 [Compound 368]	100 to 1000 nM	100 to 1000 nM	–	–	–
Cn1c(=O)c(-c2cccc3c(C[C@H](NC(=O)c4c(F)cc(CCN5CC(F)C5)cc4F)C(=O)O)cccc23)c(C(F)(F)F)c2ccccc21 [Compound 371]	100 to 1000 nM	100 to 1000 nM	–	–	–
CN1CCC(c2cc(F)c(C(=O)N[C@@H](Cc3cccc4c(-c5c(C(F)(F)F)c6ccccc6n(C)c5=O)cccc34)C(=O)O)c(F)c2)C1 (some centres unmarked) [Compound 372]	100 to 1000 nM	100 to 1000 nM	–	–	–
Cn1c(=O)c(-c2cccc3c(C[C@H](NC(=O)c4c(F)cc(C5CCCOC5)cc4F)C(=O)O)cccc23)c(C(F)(F)F)c2ccccc21 (some centres unmarked) [Compound 374]	100 to 1000 nM	100 to 1000 nM	–	–	–
Cn1c(=O)c(-c2cccc3c(C[C@H](NC(=O)c4c(F)ccc(C5CCC(F)(F)CC5)c4F)C(=O)O)cccc23)c(C(F)(F)F)c2ccccc21 [Compound 382]	100 to 1000 nM	100 to 1000 nM	–	–	–

SMILES	IC50 (α4β7 integrin [1])	IC50 (α4β7 integrin [2]; [3])	IC50 (α4β1 integrin)	IC50 (α4β7 integrin [1]; protocol not given)	IC50 (α4β7 integrin [2]; Protocol 4, RPMI-8866 cells with LOF mutation of ITGB1, MAdCAM, read-out: Mean IC50 α4β7 KO)
Cn1c(=O)c(-c2cccc3c(C[C@H](NC(=O)c4c(F)cc(NC5(C(F)F)CC5)cc4F)C(=O)O)cccc23)c(C(F)(F)F)c2ccccc21 [Compound 387]	100 to 1000 nM	100 to 1000 nM	–	–	–
Cn1c(=O)c(-c2cccc3c(C[C@H](NC(=O)c4c(F)cc(N5CC(C(F)(F)F)C5)cc4F)C(=O)O)cccc23)c(C(F)(F)F)c2ccccc21 [Compound 388]	100 to 1000 nM	100 to 1000 nM	–	–	–
Cn1c(=O)c(-c2cccc3c(C[C@H](NC(=O)c4c(F)cc(N5CC6C(C5)C6(F)F)cc4F)C(=O)O)cccc23)c(C(F)(F)F)c2ccccc21 (some centres unmarked) [Compound 389]	100 to 1000 nM	100 to 1000 nM	–	–	–
Cn1c(=O)c(-c2cccc3c(C[C@H](NC(=O)C45CC(C(F)F)(C4)C5)C(=O)O)cccc23)c(C(F)(F)F)c2ccccc21 [Compound 390]	100 to 1000 nM	100 to 1000 nM	–	–	–
Cn1c(=O)c(-c2cccc3c(C[C@H](NC(=O)[C@]4(C)CC[C@@H](N5CC(F)(F)C5)CC4)C(=O)O)cccc23)c(C(F)(F)F)c2ccccc21 [Compound 399]	100 to 1000 nM	10 to 100 nM	–	–	–
Cn1c(=O)c(-c2cccc3c(C[C@H](NC(=O)[C@]4(C)CC[C@H](N5CC(F)(F)C5)CC4)C(=O)O)cccc23)c(C(F)(F)F)c2ccccc21 [Compound 400]	100 to 1000 nM	100 to 1000 nM	–	–	–
Cn1c(=O)c(-c2cccc3c(C[C@H](NC(=O)[C@]4(C)CC[C@@H](N5CCS(=O)(=O)CC5)CC4)C(=O)O)cccc23)c(C(F)(F)F)c2ccccc21 [Compound 404]	100 to 1000 nM	100 to 1000 nM	–	–	–
CN(C)c1ccc2c(c1)c(C(F)(F)F)c(-c1cccc3c(C[C@H](NC(=O)[C@]4(C)CC[C@@H](N5CCOC[C@@H]5C(F)(F)F)CC4)C(=O)O)cccc13)c(=O)n2C [Compound 409]	100 to 1000 nM	100 to 1000 nM	–	–	–
Cn1c(=O)c(-c2cccc3c(C[C@H](NC(=O)c4c(F)cc([C@H]5C[C@@H](N(C)C)C5)cc4F)C(=O)O)cccc23)c(C(F)(F)F)c2ccccc21 [Compound 416]	100 to 1000 nM	100 to 1000 nM	–	–	–
Cn1c(=O)c(-c2cccc3c(C[C@H](NC(=O)[C@]4(C(F)(F)F)CC[C@H](N5CCOC[C@@H]5C(F)(F)F)CC4)C(=O)O)cccc23)c(C(F)(F)F)c2ccccc21 [Compound 423]	100 to 1000 nM	100 to 1000 nM	–	–	–
CN(C)Cc1cccc2c(-c3cccc4c(C[C@H](NC(=O)[C@]5(C)CC[C@H](N6CCC(F)(F)CC6)CC5)C(=O)O)cccc34)nccc12 [Compound 425]	100 to 1000 nM	100 to 1000 nM	–	–	–
Cn1c(=O)c(-c2cccc3c(C[C@H](NC(=O)c4c(F)cc(N5CC6(COC6)C5)cc4F)C(=O)O)cccc23)c(C(F)(F)F)c2ccccc21 [Compound 426]	100 to 1000 nM	100 to 1000 nM	–	–	–
Cn1ccc(C(F)(F)F)c(-c2cccc3c(C[C@H](NC(=O)c4c(F)cc(N5CCOC[C@H]5c5ccccc5)cc4F)C(=O)O)cccc23)c1=O [Compound 438]	100 to 1000 nM	10 to 100 nM	–	–	–
Cn1ccc(C(F)(F)F)c(-c2cccc3c(C[C@H](NC(=O)c4c(F)cc(N5CCOCC5c5ccc(C(F)(F)F)cc5)cc4F)C(=O)O)cccc23)c1=O (some centres unmarked) [Compound 442]	100 to 1000 nM	100 to 1000 nM	–	–	–
Cn1c(=O)c(-c2cccc3c(C[C@H](NC(=O)c4c(F)cccc4C(F)(F)F)C(=O)O)cccc23)c(C(F)(F)F)c2ccccc21 [Compound 443]	100 to 1000 nM	> 1000 nM	–	–	–
Cn1c(=O)c(-c2cccc3c(C[C@H](NC(=O)C45CC(NCC(F)(F)F)(C4)C5)C(=O)O)cccc23)c(C(F)(F)F)c2ccccc21 [Compound 447]	100 to 1000 nM	100 to 1000 nM	–	–	–
Cn1c(=O)c(-c2cccc3c(C[C@H](NC(=O)C45CC(N6CCOCC6)(C4)C5)C(=O)O)cccc23)c(C(F)(F)F)c2ccccc21 [Compound 459]	100 to 1000 nM	100 to 1000 nM	–	–	–
Cn1c(=O)c(-c2cccc3c(C[C@H](NC(=O)c4c(F)ccc(C(F)(F)F)c4F)C(=O)O)cccc23)c(C(F)(F)F)c2ccccc21 [Compound 461]	100 to 1000 nM	100 to 1000 nM	–	–	–
Cn1c(=O)c(-c2cccc3c(C[C@H](NC(=O)c4c(F)cc(N5CCC(CO)C5)cc4F)C(=O)O)cccc23)c(C(F)(F)F)c2ccccc21 (some centres unmarked) [Compound 462]	100 to 1000 nM	100 to 1000 nM	–	–	–
Cc1cccc(C)c1-c1cc(C(=O)N[C@@H](Cc2cccc3c(-n4c(=O)cc(CCN5CC(F)C5)n(C)c4=O)cccc23)C(=O)O)c(F)c(C(F)(F)F)c1 [Compound 1056]	–	–	–	100 to 1000 nM	> 1000 nM
